Measurements as given in patent US20120083522A1, “MODULATION OF INFLAMMATORY RESPONSES BY FACTOR XI” (Isis Pharmaceuitcals, inc., priority 2009, published 2012).

What was measured:
human Factor XI mRNA [1] = assay: Dose-dependent inhibition in HepG2 cells, electroporation (Example 5); assay type: cell-based; conditions: approx. 16 h, relative to untreated control cells
Protocol: The gapmers were also transfected via electroporation and their dose dependent inhibition of human Factor XI mRNA was measured. Cells were plated at a density of 20,000 cells per well and transfected via electroporation with 625 nM, 1250 nM, 2500 nM, 5,000 nM, 10,000 nM, and 20,000 nM concentrations of antisense oligonucleotide, as specified in Table 12. After a treatment period of approximately 16 hours, RNA was isolated from the cells and human Factor XI mRNA levels were measured by quantitative real-time PCR. Human Factor XI primer probe set RTS 2966 was used to measure mRNA levels. Factor XI mRNA levels were adjusted according to total RNA content, as measured by RIBOGREEN®. Results are presented as percent inhibition of human Factor XI, relative to untreated control cells.

[2] = Tolerability in Sprague-Dawley rats: body and organ weight (Example 19); assay type: in vivo; conditions: 50 mg/kg s.c. twice per week for 6 weeks, change over weight at start of study
Source text: (§1) Urine samples were taken before the start of treatment.
The body weights are presented in Table 78 and are expressed as a percent change over the weights taken at the start of the study.

human Factor XI mRNA [3] = assay: Dose-dependent inhibition in cyno primary hepatocytes, electroporation (Example 6); assay type: cell-based, cynomolgus monkey; conditions: approx. 16 h
Protocol: Cells were plated at a density of 35,000 cells per well and transfected via electroporation with 0.74 nM, 2.2 nM, 6.7 nM, 20 nM, 60 nM, and 180 nM concentrations of antisense oligonucleotide, as specified in Table 13. After a treatment period of approximately 16 hours, RNA was isolated from the cells and human Factor XI mRNA levels were measured by quantitative real-time PCR. Human Factor XI primer probe set RTS 2966 was used to measure mRNA levels. Factor XI mRNA levels were adjusted according to total RNA content, as measured by RIBOGREEN®. Results are presented as percent inhibition of human Factor XI, relative to untreated control cells.

[4] = Tolerability in Sprague-Dawley rats: kidney function (Example 19); assay type: in vivo; conditions: Sprague Dawley rats; for urine protein/creatinine ratio, After: after 50 mg/kg s.c. twice per week for 6 weeks; for urine protein/creatinine ratio, Before: before antisense oligonucleotide treatment
Source text: as §1

human Factor XI mRNA [5] = assay: Dose-dependent inhibition in HepB3 cells, lipofectin (Example 7); assay type: cell-based; conditions: approx. 16 h
Protocol: Cells were plated at a density of 4,000 cells per well and transfected using lipofectin reagent with 2.3 nM, 4.7 nM, 9.4 nM, 18.75 nM, 37.5 nM, and 75 nM concentrations of antisense oligonucleotide, as specified in Table 14. After a treatment period of approximately 16 hours, RNA was isolated from the cells and human Factor XI mRNA levels were measured by quantitative real-time PCR. Human Factor XI primer probe set RTS 2966 was used to measure mRNA levels. Factor XI mRNA levels were adjusted according to total RNA content, as measured by RIBOGREEN®. Results are presented as percent inhibition of Factor XI, relative to untreated control cells.

human Factor XI mRNA [6] = assay: Antisense inhibition in HepG2 cells by microwalk gapmers, 75 nM, lipofectin (Example 3); assay type: cell-based; conditions: HepG2 cells, 75 nM, oligonucleotides targeted to nucleobases 1275 to 1318 of SEQ ID NO: 1
Summary of the method: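 HepG2 cells (10,000 per well) were transfected with 75 nM gapmer using lipofectin and treated for about 24 h. Factor XI mRNA was quantified by real-time PCR, normalized to RiboGreen total RNA and expressed as percent inhibition versus untreated controls.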

Substance | percent inhibition of human Factor XI mRNA (human Factor XI mRNA [1]; 625 nM) [%] | percent inhibition of human Factor XI mRNA (human Factor XI mRNA [1]; 1250 nM) [%] | percent inhibition of human Factor XI mRNA (human Factor XI mRNA [1]; 2500 nM) [%] | percent inhibition of human Factor XI mRNA (human Factor XI mRNA [1]; 5000 nM) [%] | percent inhibition of human Factor XI mRNA (human Factor XI mRNA [1]; 10000 nM) [%] | percent inhibition of human Factor XI mRNA (human Factor XI mRNA [1]; 20000 nM) [%] | Percent change in Body weight [2] [%] | percent inhibition of human Factor XI mRNA (human Factor XI mRNA [3]; 0.74 nM) [%] | percent inhibition of human Factor XI mRNA (human Factor XI mRNA [3]; 2.2 nM) [%] | percent inhibition of human Factor XI mRNA (human Factor XI mRNA [3]; 6.7 nM) [%] | percent inhibition of human Factor XI mRNA (human Factor XI mRNA [3]; 20 nM) [%] | percent inhibition of human Factor XI mRNA (human Factor XI mRNA [3]; 60 nM) [%] | percent inhibition of human Factor XI mRNA (human Factor XI mRNA [3]; 180 nM) [%] | urine protein/creatinine ratio, After [4] | urine protein/creatinine ratio, Before [4] | percent inhibition of human Factor XI mRNA (human Factor XI mRNA [5]; 2.3 nM) [%] | percent inhibition of human Factor XI mRNA (human Factor XI mRNA [5]; 4.7 nM) [%] | percent inhibition of human Factor XI mRNA (human Factor XI mRNA [5]; 9.4 nM) [%] | percent inhibition of human Factor XI mRNA (human Factor XI mRNA [5]; 18.75 nM) [%] | percent inhibition of human Factor XI mRNA (human Factor XI mRNA [5]; 37.5 nM) [%] | further results
416999 (antisense GCACAGTTTCTGGCAGGCCT; 2-13-5 gapmer, wing sugar chemistry not given here, further chemistry not given here) [compound 416999] | 61 | 82 | 89 | 94 | 94 | 97 | −37 | 3 | 40 | 36 | 62 | 67 | 82 | 9.1 | 1.3 | 19 | 33 | 42 | 60 | 71 | percent inhibition of human Factor XI mRNA (human Factor XI mRNA [5]; 75 nM): 59%; % inhibition of human Factor XI mRNA levels (human Factor XI mRNA [6]): 92%
417002 (antisense GGTGCACAGTTTCTGGCAGG; 2-13-5 gapmer, wing sugar chemistry not given here, further chemistry not given here) [compound 417002] | 59 | 72 | 86 | 90 | 94 | 96 | −29 | 32 | 16 | 28 | 38 | 55 | 71 | 2.4 | 1.0 | 24 | 30 | 46 | 57 | 71 | percent inhibition of human Factor XI mRNA (human Factor XI mRNA [5]; 75 nM): 65%; % inhibition of human Factor XI mRNA levels (human Factor XI mRNA [6]): 92%
417003 (antisense TGGTGCACAGTTTCTGGCAG; 2-13-5 gapmer, wing sugar chemistry not given here, further chemistry not given here) [compound 417003] | 60 | 74 | 86 | 90 | 95 | 95 | −40 | 12 | 18 | 19 | 39 | 58 | 74 | 4.8 | 0.9 | 11 | 28 | 40 | 40 | 63 | percent inhibition of human Factor XI mRNA (human Factor XI mRNA [5]; 75 nM): 58%; % inhibition of human Factor XI mRNA levels (human Factor XI mRNA [6]): 89%
